Data from patent US20230285516A1 (priority 2020, published 2023).
Entries after “also recorded” stand apart in the source; their conditions may differ.

Experiments:
TNF-α = TNF-α gene expression in co-cultured tissues (RT-PCR); type: cell-based, human; settings: vs control
Text: (§1) FIG. 7. Effect of type I polymerized collagen on the gene expression of pro- and anti-inflammatory cytokines and factors in the tissues of cartilage and synovial tissue co-cultures of patients with rheumatoid arthritis (RA). (A) Quantification of TNF-α, IL-6 and IL-10 gene expression and (B) Quantification of IL-23 and Foxp3 gene expression by RT-PCR in synovial membrane tissues and cartilage co-cultured for 7 days. The bars show the mean±SD of the transcript levels of the samples normalized through the expression of the housekeeping gene GADPH determined by 2ΔΔCt. The data represent the mean±SD of 9 cartilage and synovial co-cultures from RA patients. Each culture was performed in triplicate for each condition. Basal: tissue in basal conditions.
(§2) FIG. 8. Effect of type I polymerized collagen on the gene expression of pro- and anti-inflammatory cytokines and factors in the tissues of cartilage and synovial co-cultures of patients with Osteoarthritis (OA). (A) Quantification of IL-1β, INF-α, IL-6 and IL-10 gene expression, (B) IL-23 and Foxp3 by RT-PCR in co-cultured cartilage and synovial membrane tissues for 7 days. The bars show the mean±SD of the transcript levels of the samples normalized through the expression of the housekeeping gene GADPH determined by 2ΔΔCt. The data represent the mean±SD of 8 co-cultures from patients with OA. […]

Th17 (CD4+/IL-17+) cells = test: FACS of spleen Th17 cells in CIA models; type: in vivo, mice; settings: CIA model, fold
Description: (§3) Early Arthritis Model. Fifty mice with the same characteristics were immunized at the base of the tail with 100 μg of chicken type II collagen emulsified in complete Freund's adjuvant. The boost was applied on day 21 at the base of the tail with 100 μg of type II collagen emulsified with Freund's incomplete adjuvant. On the same boosting day, the treatments (a-d) were applied every week for six weeks. Three animals were euthanized in the sixth week and three in the thirteenth week. The spleen, lymph nodes, joint tissue, liver, lungs, kidneys and heart were obtained in order to assess the inflammatory infiltrate, the predominant cell populations and the expression of pro- and anti-inflammatory cytokines.
Established Arthritis Model. Arthritis was induced as in the previous model in 50 mice and the treatments were applied intramuscularly, after 2 weeks of the boost, every week for 6 weeks. Three animals were euthanized in the eighth week and three in the fifteenth week. The spleen, lymph nodes, joint tissue, liver, lungs, kidneys and heart were obtained in order to assess the inflammatory infiltrate, the predominant cell populations and the expression of pro- and anti-inflammatory cytokines. […]
FIG. 10. […] The intracellular production of IL-17A, IL-4, IFN-γ and Foxp3 by CD4+ T cells was detected by flow cytometry. The results are representative of 6 mice analyzed in each group. […]

IL-8 = IL-8 in co-culture supernatants (ELISA); type: cell-based, human; settings: tissue co-cultures from RA patients
Description: (§4) Cartilage and synovium co-cultures were performed from 9 patients with RA and 8 patients with OA who underwent hip or knee replacement (Table 1). Joint tissue was cultured with (a) RPMI (control), (b) 1% type I polymerized collagen, for 7 days. The supernatants and tissues of days 1 and 7 were […] collected. In the culture supernatants the concentration of IL-1β, IL-8, IL-10, IL-12, TNF-α and IFN-γ was quantified by ELISA and the results were normalized with total protein concentration. The expression of IL-1β and TNF-α was evaluated using histochemistry.
(§5) FIG. 5. Effect of type I polymerized collagen on IL-8 expression in supernatants of cartilage and synovial tissue co-cultures from patients with rheumatoid arthritis (RA) or osteoarthritis (OA). The data represent the mean±SD of 9 co-cultures of cartilage and synovium from patients with RA and of 8 co-cultures of patients with OA. Each culture was performed in triplicate for each condition. The results were normalized with the total protein concentration of the supernatant, determined by the Folin-Löwry micromethod. AR: left panel. OA: panel on the right. Basal: tissue in basal conditions.

mice with CIA = test: Histopathological analysis of hind legs, collagen-induced arthritis (CIA) models; type: in vivo; settings: H&E and PAS, intramuscular weekly for 6 weeks
Description: as §3
(§6) Established Arthritis Model. Arthritis was induced as in the previous model in 50 mice and the treatments were applied intramuscularly, after 2 weeks of the boost, every week for 6 weeks. Three animals were euthanized in the eighth week and three in the fifteenth week. The spleen, lymph nodes, joint tissue, liver, lungs, kidneys and heart were obtained in order to assess the inflammatory infiltrate, the predominant cell populations and the expression of pro- and anti-inflammatory cytokines.
Histological evaluation. The inflammatory infiltrate and tissue architecture were evaluated by H&E and Masson's trichrome staining and the content of proteoglycans, with the PAS technique. […]

Treg (CD4+/FOXP3+) cells = test: FACS of spleen Foxp3+ regulatory T cells in CIA models; type: in vivo, mice
Description: as §3, §6
Cytometric evaluation. Using FACS, the percentage of populations of Th1 ([…]), Th2 (CD4^+/IL-4^+), Treg (CD4^+/FOXP3^+) Th17 (CD4^+/IL-17^+) and dendritic (CD4−/CD11c^+) cells in spleen cells.
FIG. 10. Effect of type I polymerized collagen in the early (preventive) and long-standing (late or palliative) arthritis model on the percentage of spleen CD4+ T cell subpopulations. (A) Spleen cells obtained ex vivo in the early arthritis model during the first sacrifice. (B) Spleen cells obtained ex vivo in the early arthritis model during the second sacrifice. (C) Spleen cells obtained ex vivo in the long-standing arthritis model during the first sacrifice. […] The intracellular production of IL-17A, IL-4, IFN-γ and Foxp3 by CD4+ T cells was detected by flow cytometry. The results are representative of 6 mice analyzed in each group. […]

IL-10 = IL-10 in co-culture supernatants (ELISA); type: cell-based, human; settings: RA or OA co-cultures, day 7 vs. day 1 of culture
Description: as §4
as §5, with “6.” for “5.”, “IL-10” for “IL-8”, “Folin-Lowry” for “Folin-Löwry”

[1] = Adverse events in the mouse study; type: in vivo, mice; settings: after injection, throughout the study
Description: There was no evidence of adverse events after injection of placebo or the different treatments throughout the study. The only adverse event observed was pain lasting less than 15 minutes at the injection site.

Foxp3 = Foxp3 gene expression in co-cultured tissues (RT-PCR); type: cell-based, human; settings: vs control
Text: as §1, §2

dormant cells = settings: Jou I-M 2005; Furuzawa-Carballeda 2003; cited from earlier work
[2] = co-cultures from patients with OA
[3] = co-cultures from patients with RA

collagen-polyvinylpyrrolidone [type I polymerized collagen]
gene expression of TNF-α (TNF-α; [2]): negative regulation | transcription of TNF-α gene (TNF-α; [3]): negatively regulated | negative regulation of the subpopulation of Th17 cells (Th17 (CD4+/IL-17+) cells): 1.5-2.0 × | concentration of IL-8 in the supernatants of the co-cultures (IL-8): greatest decrease | histopathology of joint tissue (inflammation, tissue architecture) (mice with CIA): decreased the degree of inflammation and preserved the joint structure; also recorded: maintained a tissue architecture similar to normal | positive regulation of Tregs cells (Treg (CD4+/FOXP3+) cells; CIA model, fold): 5.0-6.0 × | Foxp3+ regulatory T cells (Treg (CD4+/FOXP3+) cells; early and long-standing arthritis, first and second sacrifice, vs placebo): increase | increase of IL-10 concentration in the supernatants (IL-10): ≥ 10 times | adverse events [1]: no adverse effects | gene expression of Foxp3 (Foxp3; [2]): positive regulation | transcription of FOXP3 gene (Foxp3; [3]): positively | response of dormant cells (dormant cells): does not induce any response
